Reference: US12227802B2, “Nucleotides with a 3′ AOM blocking group” (Illumina Cambridge Limited, priority 2018, dated 2025)

Experiments:
Assay type in all cases: physicochemical
[1] = 3′-O-thiocarbamate blocking groups stability testing in incorporation buffer at 65° C. (HPLC); conditions: 9-day testing period (FIG. 6)
Experimental: The stability tests for 5′-mP 3′-DMTC T nucleotide was performed side by side in an incorporation buffer solution with standard 5′-mP 3′-O-azidomethyl T nucleotide.
For both 5′-mP 3′-DMTC T and 5′-mP 3′-O-azidomethyl T, the final solution volume was 1 mL and the final concentrations of the corresponding nucleotides were both 0.1 mM. Other components of the aqueous buffer solution include ethanolamine (EA), ethanolamine HCl, NaCl (100 mM), and EDTA (2.5 mM). The buffer solution has the following concentration: 0.5 M EA Buffer, 0.5 M NaCl, 0.01 M EDTA.
200 μL of 10× Buffer solution was added to a 1.7 mL polypropylene snap lock microtube and diluted with the correct volume of 18 mΩ water. The corresponding nucleoside was then added, the vial was sealed and mixed via inversion, gentle stirring or pumping with a micropipette. A 40 μL aliquot was taken and analyzed by HPLC to act as a starting (or t=0) value. The vials are then placed in a pre-heated heating mantle set to 65° C., covered with a thick layer of aluminum foil and left to heat for one month. 40 μL aliquots was taken periodically (weck 1: once daily. Wecks 2-4: 1 every 2 days) and analyzed by HPLC to determine the percentage starting material and the percentage deblocked (3′-OH) nucleotide in the samples. HPLC analysis was performed by measuring the area of the stating nucleotide peak and the 3′OH peak. […]

[2] = 3′-O-thiocarbamate (DMTC) deblocking test in solution (HPLC)
Experimental: (§1) In this example, deblocking or deblock tests for 5′-mP 3′-DMTC T and the standard 5′-mP 3′-O-azidomethyl T nucleotide were performed individually in a solution unique to each blocking group. Conditions were formulated to mimic Illumina's standard deblock reagent as closely as possible, and follow the same methodology. Concentrations of active deblock reagent, buffer, and nucleoside are kept the same across all tests, but the identity of each component was unique. In this way, the observed difference in rate between the individual deblocking chemistries cannot due to the differences in concentration of formulation.
Each reaction component was formulated individually as a concentrated stock in 18 mΩ water, stored appropriately, and aliquots combined in a specific order given below. Reaction was commenced by addition of the preformulated deblock reagent. […]
In a 3 mL glass vial was added the preformulated buffer solution followed by preformulated additive solution. […] A 40 μL aliquot was then taken, quenching reagent added and analyzed by HPLC as a reference (or t=0 min) peak. […] At specified time points, 40 μL aliquots were taken and quenched immediately with an appropriate quenching reagent, then analyzed by HPLC to determine the amount of deblocked nucleotide that has occurred at these specified time points. […]

[3] = Deblocking test of 3′ blocked T nucleotides in solution (Pd/THP for AOM, THP for azidomethyl; HPLC); conditions: 0.1 mM nucleotide, Pd/THP=1/5, 1 mM THP, ethanolamine pH 9.8, room temperature
Experimental: as §1, with “deblocking” for “deblocking or deblock”, “3′-AOM” for “3′-DMTC”
Nucleotide: 5′-monophosphate 3′-O-azidomethyl T. Active Deblock reagent: tris(hydroxypropyl)phosphine (THP) (1M in 18 mΩ water). (Optional) Additive: Sodium ascorbate (0.1 mM in 18 mΩ water) final conc.=1 mM. Buffer: Ethanolamine pH 9.8 (2M in 18 mΩ water). Quenching reagent: H2O2.
Nucleotide: 5′-monophosphate […]. A stock solution of 3′-AOM T was diluted to 0.1 mM in a 100 mM ethanolamine buffer (pH 9.8), in a glass vial under nitrogen. A stock solution of sodium ascorbate additive was added to a final concentration of 0.1 mM and the solution stirred 5 minutes. To commence the assay, the deblock reagents (Pd/THP=⅕; sodium ascorbate; ethanolamine) were added, to a final concentration of 1 mM THP, to the stirring solution at room temperature. […]

## Cc1cn([C@H]2CC(OC(=S)N(C)C)[C@@H](COP(=O)(O)O)O2)c(=O)[nH]c1=O (stereo partly shown) [DMTC]
[1]
  stability compared to nucleotide with standard 3′-O-azidomethyl group: improved stability
[2]; 1 mM NaIO4, pH 6.75 phosphate buffer (FIG. 7)
  deblocking with NaIO4: not efficient
[2]; 1 mM Oxone, pH 8.65 phosphate buffer (FIG. 7)
  deblocking rate with Oxone compared to standard azidomethyl blocking group: superior deblocking rate

## C=CCOCOC1C[C@H](n2cc(C)c(=O)[nH]c2=O)O[C@@H]1COP(=O)(O)O (stereo partly shown) [AOM]
[3]
  speed improvement in deblocking rate in solution compared to standard azidomethyl blocking group: 10 fold
